# Results taken from paper PMC6151740, “Pharmacokinetics, Tissue Distribution, and Elimination of Three Active Alkaloids in Rats after Oral Administration of the Effective Fraction of Alkaloids from Ramulus Mori, an Innovative Hypoglycemic Agent” (Molecules : A Journal of Synthetic Chemistry and Natural …, 2017).
# Where two headings read alike, the source gives them in different places.
# How the values were obtained:
# [1] = Plasma pharmacokinetic study in rats after oral and intravenous administration of SZ–A or purified DNJ; assay type: in vivo, rat; settings: for AUC(0-inf) / AUC(0-t) / Tmax / half-life / clearance / MRT last / MRT inf / Vd / Cmax / CLz: rat plasma, n = 5; for clearance: read-out: CLz (converted); for MRT last: read-out: MRT0–t; for MRT inf: read-out: MRT0–∞; for bioavailability: plasma, read-out: F (oral absolute bioavailability)
# Procedure: The oral dosing solutions used for all animal studies were prepared by dissolving in water. Thirty rats weighed 250–270 g after acclimation were randomly divided into six groups of five animals each. For oral administration, rats were treated with SZ–A (40, 200, 1000 mg/kg) or purified DNJ (15 mg/kg) dissolve in water. Blood samples (about 0.25 mL) were collected via the postorbital venous plexus veins under ether anesthesia into heparinized polythene tubes before dosing and at 0.08, 0.17, 0.33, 0.50, 1, 2, 3, 4, 6, 8, 12, 24 and 36 h after drug administration. For intravenous dosing, rats were given SZ–A (4 mg/kg) or DNJ (1.5 mg/kg) dissolved in normal saline solution through the tail vein. Then blood samples were collected at 0.03, 0.08, 0.17, 0.33, 0.67, 1, 2, 4, 6, 8, 12, 24, and 36 h under similar conditions. Considering the physical limit of blood in rats, during the process of the pharmacokinetic experiment, each rat was received 0.25 mL of sterile isotonic saline at each time point after blood sampling for compensation of body fluid loss, and the blood loss was also corrected at a definite degree. Plasma was separated by centrifuging the blood samples at 1660× g for 5 min and stored at −20 °C until LC-MS/MS analysis. Data fitting and pharmacokinetic parameter estimates were carried out using non–compartmental analysis via WinNonlin Software (version 6.1, Pharsight Corporation, Mountain View, CA, USA). F was calculated according to the formula: F (%) = (AUC oral/AUC i.v.) × (dose i.v./dose oral) × 100.
# The plasma, feces, urine, and bile samples (100 μL) were added to 1 μL of Tris aqueous solution (2 M), 10 μL of IS working solution (2 μg/mL), and 190 μL methanol–acetonitrile (25:75, v/v). The incubation supernatant samples (300 μL) were mixed with 1 μL Tris aqueous solution (2 M) and 10 μL of IS working solution (2 μg/mL). All mixtures were vortexed for 30 s followed by centrifugation at 18,880× g for 5 min, twice.
# Briefly, the LC-MS/MS instrument consisted of a 1260 HPLC system (Agilent, Santa Clara, CA, USA) and API4000 triple quadrupole mass spectrometer (Applied Biosystems Sciex, Toronto, ON, Canada) with an electrospray ionization (ESI) source and Analyst software (version 1.5.2, Applied Biosystems Sciex, Toronto, ON, Canada) for data acquisition and processing. DNJ, FGM, DAB, and IS were separated in a Xbridge amide™ column (3.5 μm, 4.6 mm × 150 mm; Waters, Milford, MA, USA) with a gradient mobile phase of acetonitrile-water (0.1% ammonium hydroxide) at a flow rate of 0.7 mL/min. An ESI source was used in the positive ion mode. The optimized mass spectrometric condition was as follows: ion spray voltage, 5500 V; collision gas, 6 psi; curtain gas, 20 psi; ion source gas 1 (GS1), 45 psi; ion source gas 2 (GS2), 45 psi; temperature, 450 °C. The multiple reaction monitoring (MRM) transitions of DNJ, FGM, DAB, and IS were m/z 164.0→110.1 (declustering potential (DP) 50 V, collision energy (CE) 22 V, collision cell exit potential (CXP) 10 V), 148.0→112.1 (DP 66 V, CE 21 V, CXP 10 V), 134.0→98.0 (DP 60 V, CE 20 V, CXP 10 V) and 208.0→146.1 (DP 50 V, CE 27 V, CXP 10 V), respectively.
# [2] = tested on: rat caecal microbiota cultures; assay: In vitro incubation of SZ–A with rat caecal microbiota cultures; assay type: in vitro ADME; settings: 2 h
# Procedure: Pooled rat intestinal homogenate from six males was prepared using a tissue homogenizer with ice cold normal saline solution at a proportion of 1:3 (w/v). SZ–A was incubated with rat intestinal homogenate (5 mg protein/mL) with/without a NADPH-generating system (0.011 M β-NADP, 0.1 M glucose 6-phosphate, 10 U/mL glucose-6-phosphate dehydrogenase) in a 37 °C water bath for 120 min. Meanwhile, caecal content was collected and mixed with anaerobic medium (1:30, w/v) to prepare the cultures under nitrogen atmosphere at 37 °C for 120 min. SZ–A and rat caecal microbiota cultures were incubated at a total volume of 200 μL with the boiled samples as the negative control, concomitantly. The incubation was stopped at 2 h by adding two volumes of methanol–acetonitrile (1:3, v/v). Triplicate supernatants were taken by centrifugation at 18,880× g for 5 min and stored at −20 °C until LC-MS/MS analysis. The results were expressed as the percentage of the concentration at 0 min.
# [3] = Sprague-Dawley, iv, SZ–A 4 mg/kg i.v.
# [4] = Sprague-Dawley, iv, purified DNJ 1.5 mg/kg i.v.
# [5] = Sprague-Dawley, po, SZ–A 40 mg/kg p.o.
# [6] = Sprague-Dawley, po, SZ–A 200 mg/kg p.o.
# [7] = Sprague-Dawley, po, SZ–A 1000 mg/kg p.o.
# [8] = Sprague-Dawley, po, purified DNJ 15 mg/kg p.o.
compound,measurement,setting,value
"OC[C@H]1NC[C@H](O)[C@@H](O)[C@@H]1O [DNJ, 1-deoxynojirimycin]",AUC(0-inf),[1]; [3],1400 ± 175 ng·h/mL
same,AUC(0-t),[1]; [3],1400 ± 174 ng·h/mL
same,Tmax,[1]; [3],1.98 min
same,half-life,[1]; [3],17.4 ± 4.8 min
same,clearance,[1]; [3],18.1 mL/min/kg
same,MRT last,[1]; [3],48 ± 30 min
same,MRT inf,[1]; [3],49.2 ± 30.6 min
same,Vd,"[1]; Sprague-Dawley, iv, SZ–A 4 mg/kg i.v., read-out: Vd",0.453 ± 0.13 L/kg
same,AUC(0-inf),[1]; [4],1140 ± 108 ng·h/mL
same,AUC(0-t),[1]; [4],1130 ± 108 ng·h/mL
same,Cmax,[1]; [4],4520 ± 576 ng/mL
same,Tmax,[1]; [4],1.8 min
same,half-life,[1]; [4],15 ± 3 min
same,clearance,[1]; [4],22.2 mL/min/kg
same,MRT last,[1]; [4],28.8 ± 4.8 min
same,MRT inf,[1]; [4],30 ± 4.8 min
same,Vd,"[1]; Sprague-Dawley, iv, purified DNJ 1.5 mg/kg i.v., read-out: Vd",0.486 ± 0.0854 L/kg
same,bioavailability,"[1]; Sprague-Dawley, po, rat, SZ–A 40 mg/kg p.o. vs SZ–A 4 mg/kg i.v.",72.4%
same,bioavailability,"[1]; Sprague-Dawley, po, rat, SZ–A 200 mg/kg p.o. vs SZ–A 4 mg/kg i.v.",38.6%
same,bioavailability,"[1]; Sprague-Dawley, po, rat, SZ–A 1000 mg/kg p.o. vs SZ–A 4 mg/kg i.v.",33.3%
same,bioavailability,"[1]; Sprague-Dawley, po, rat, purified DNJ 15 mg/kg p.o. vs DNJ 1.5 mg/kg i.v.",59.4%
same,AUC(0-inf),[1]; [5],10200 ng·h/mL
same,AUC(0-t),[1]; [5],10100 ng·h/mL
same,Cmax,[1]; [5],6370 ± 1120 ng/mL
same,Tmax,[1]; [5],40.2 ± 17.4 min
same,half-life,[1]; [5],78 ± 15 min
same,MRT last,[1]; [5],103 ± 40.2 min
same,MRT inf,[1]; [5],107 ± 41.4 min
same,AUC(0-inf),[1]; [6],27000 ng·h/mL
same,AUC(0-t),[1]; [6],27000 ng·h/mL
same,Cmax,[1]; [6],10500 ng/mL
same,Tmax,[1]; [6],40.2 ± 12 min
same,half-life,[1]; [6],127 ± 28.2 min
same,MRT last,[1]; [6],158 ± 28.8 min
same,MRT inf,[1]; [6],163 ± 29.4 min
same,AUC(0-inf),[1]; [7],117000 ng·h/mL
same,AUC(0-t),[1]; [7],116000 ng·h/mL
same,Cmax,[1]; [7],25100 ng/mL
same,Tmax,[1]; [7],25.8 ± 5.4 min
same,half-life,[1]; [7],211 ± 51 min
same,MRT last,[1]; [7],307 ± 88.8 min
same,MRT inf,[1]; [7],315 ± 91.8 min
same,AUC(0-t),[1]; [8],6730 ± 1150 ng·h/mL
same,Cmax,[1]; [8],4860 ± 1120 ng/mL
same,Tmax,[1]; [8],40.2 ± 17.4 min
same,half-life,[1]; [8],52.8 ± 8.4 min
same,MRT last,[1]; [8],106 ± 15 min
same,MRT inf,[1]; [8],111 ± 12.6 min
same,CLz,[1]; SZ–A 40 mg/kg p.o.,25.013 ± 3.258 mL/min/kg
same,Vd,[1]; SZ–A 40 mg/kg p.o.,2.8301 ± 0.7411 L/kg
same,CLz,[1]; SZ–A 200 mg/kg p.o.,47.062 ± 6.693 mL/min/kg
same,Vd,[1]; SZ–A 200 mg/kg p.o.,8.6178 ± 2.3175 L/kg
same,CLz,[1]; SZ–A 1000 mg/kg p.o.,54.045 ± 4.968 mL/min/kg
same,Vd,[1]; SZ–A 1000 mg/kg p.o.,"16,468.3 ± 4217.0 mL/kg"
same,CLz,[1]; purified DNJ 15 mg/kg p.o.,37.693 ± 6.373 mL/min/kg
same,time to reach maximum plasma concentration (Cmax),"[1]; rat, after oral administration of SZ–A (40, 200, 1000 mg/kg), upper bound over doses",≤ 0.67 h
same,average AUC of DNJ in the SZ–A group relative to the DNJ group,"[1]; rat, intravenous injection, SZ–A 4 mg/kg vs purified DNJ 1.5 mg/kg",1.2 fold
same,average AUC of DNJ in the SZ–A group relative to the DNJ group,"[1]; rat, oral administration, SZ–A 40 mg/kg vs purified DNJ 15 mg/kg",1.5 fold
same,percentage of initial amount after incubation with rat gut microbiota cultures,"[2]; 4.35 μg/mL SZ–A (10 μM DNJ, 1.9 μM FGM, 1.6 μM DAB)",110.6%
same,percentage of initial amount after incubation with rat gut microbiota cultures,"[2]; 10.87 μg/mL SZ–A (25 μM DNJ, 4.7 μM FGM, 3.9 μM DAB)",115.5%
